According to publication PMC7812675 (ACS Medicinal Chemistry Letters, 2020):
Like-named read-outs stand apart in the source and are kept apart here. One block for each molecule: values may come before it. Square brackets hold non-standard residues; d marks the D form. Peptide text beside a SMILES is read from it. Hyp = O=C(O)[C@@H]1C[C@@H](O)CN1

What was measured:
[1] = biological target: T1, MsCI4 (MsCI4WW/FF) (Magnetospirillum gryphiswaldense, UniProt A4TVL0, W36F/W59F); conditions: MANT-uracil reporter
[2] = biological target: T2, VHL/EloB/EloC complex (VBC) (Homo sapiens, UniProt P40337); experiment: Competitive MST assay, unlabeled peptides against VHL and FAM reporter peptide; format: binding; conditions: ± confidence interval
T2 construct: VHL54-213 fused to an N-terminal TwinStrep-tag; TwinStrep-tag (TEV site) (N, cleaved yes); made in house; host or cells: E. coli BL21(DE3)

[3] = biological target: T3, Magnetospirillum gryphiswaldense cereblon isoform 4 (MsCI4) (Magnetospirillum gryphiswaldense, UniProt A4TVL0); format: binding; conditions: initial fluorescence measurement, 200 nM BODIPY-uracil
T3 construct: made in house
T3 sequence (A4TVL0 1-124): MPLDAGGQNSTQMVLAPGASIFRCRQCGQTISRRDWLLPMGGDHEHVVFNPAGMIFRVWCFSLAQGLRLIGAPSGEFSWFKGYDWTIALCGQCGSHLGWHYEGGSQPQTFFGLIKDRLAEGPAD

[4] = biological target: T4, human CRBN (hCRBN) thalidomide binding domain (hTBD) (Homo sapiens, UniProt Q96SW2); experiment: Initial fluorescence (quenching) titration of hTBD against BODIPY-uracil; conditions: initial fluorescence measurement, 200 nM BODIPY-uracil
T4 construct: 319-425; GST (thrombin site) (N, cleaved yes); made in house; host or cells: E. coli Rosetta 2(DE3)pLysS

[5] = biological target: T4, human CRBN (hCRBN) thalidomide binding domain (hTBD); experiment: Competitive MST assay with BODIPY-uracil reporter and hTBD; conditions: for binding to hTBD in the MST assay (words; n.b., no binding): 10 µM hTBD/200 nM BODIPY-uracil
[6] = biological target: T1, MsCI4 (MsCI4WW/FF); conditions: cited from earlier work
[7] = biological target: T3, Magnetospirillum gryphiswaldense cereblon isoform 4 (MsCI4); format: binding; conditions: competitive DMSO titration
[8] = IC50, FAM-11mer competition, 570 nM VBC/20 nM FAM-11mer reporter
[9] = IC50, FAM-19mer competition, 80 nM VBC/20 nM FAM-19mer reporter

Molecule: O=C1CN(/N=C/c2ccccc2)C(=O)N1 [1-Benzylidene-aminohydantoin, 1-benzylideneaminohydantoin]
binding to MsCI4 in the FRET assay (words) [1]: absence of affinity

Molecule: O=C1CN(/N=C/c2ccccc2[N+](=O)[O-])C(=O)N1 [2-NP-AHD, 1-(2-nitrobenzylideneamino)hydantoin]
binding to MsCI4 in the FRET assay (words) [1]: absence of affinity

IC50 [2, 8]: 1.8 ± 0.81 µM | IC50 [2, 9]: 1.42 ± 0.95 µM
Molecule: CC[C@H](C)[C@H](NC(=O)[C@H](Cc1ccc(O)cc1)NC(=O)[C@@H]1C[C@@H](O)CN1C(=O)[C@H](C)NC(=O)[C@H](CC(C)C)NC(=O)[C@H](C)NC(=O)[C@H](CCC(=O)O)NC(=O)[C@@H](N)CC(=O)O)C(=O)N1CCC[C@H]1C(=O)N[C@@H](CCSC)C(=O)N[C@@H](CC(=O)O)C(=O)O [11mer] (H-DEALA[Hyp]YIPMD-OH)

IC50 [2, 8]: 0.803 ± 0.45 µM | IC50 [2, 9]: 0.572 ± 0.26 µM
Molecule: CC[C@H](C)[C@H](NC(=O)[C@H](Cc1ccc(O)cc1)NC(=O)[C@@H]1C[C@@H](O)CN1C(=O)[C@H](C)NC(=O)[C@H](CC(C)C)NC(=O)[C@H](C)NC(=O)[C@H](CCC(=O)O)NC(=O)[C@@H](N)CC(=O)O)C(=O)N1CCC[C@H]1C(=O)N[C@@H](CCSC)C(=O)N[C@@H](CC(=O)O)C(=O)N[C@@H](CC(=O)O)C(=O)N[C@@H](CC(=O)O)C(=O)N[C@@H](Cc1ccccc1)C(=O)N[C@@H](CCC(N)=O)C(=O)N[C@@H](CC(C)C)C(=O)N[C@@H](CCCNC(=N)N)C(=O)N[C@@H](CO)C(=O)N[C@@H](Cc1ccccc1)C(=O)O [19mer]

Kd [3]: 3.8 µM | Kd [4]: 11 µM
Molecule: CC1=CC(C)=[N+]2C1=C(CCC(=O)NCCn1ccc(=O)[nH]c1=O)c1c(C)cc(C)n1[B-]2(F)F [BODIPY-uracil]

Molecule: O=C1CN(/N=C/c2ccc([N+](=O)[O-])o2)C(=O)N1 [Nitrofurantoin, nitrofurantoin]
binding to hTBD in the MST assay (words; n.b., no binding) [5]: did not show any binding | binding to MsCI4 in the FRET assay (words) [1]: do not show binding | binding to MsCI4 in the FRET assay (words) ([1]; listed as nitrofurantoin): did not show any binding

Molecule: O=c1ccn([C@@H]2O[C@H](COP(=O)(O)O)[C@@H](O)[C@H]2O)c(=O)[nH]1 [UMP, uridine-5′-monophosphate]
binding to hTBD in the MST assay (words; n.b., no binding) [5]: abolished binding completely

Molecule: O=c1ccn([C@@H]2O[C@H](CO)[C@@H](O)[C@H]2O)c(=O)[nH]1 [Uridine, uridine]
affinity to MsCI4 in the FRET assay [6]: high affinity

Molecule: DMSO
Ki as corresponding concentration of DMSO, MsCI4 [7]: 0.08 % (v/v) | Ki as corresponding concentration of DMSO, hTBD ([5]; competitive DMSO titration): 1.0 % (v/v)
